Earlier results in patent US8347551B2, “Method of applying pesticides” (priority 2004, dated 2013).
Like-named read-outs stand apart in the source and are kept apart here.

Tests used:
pest [1] = details: seed treatment; dose giving sufficient control of the pest; dutch registration code no. 11492
pest [2] = details: seed treatment, dose giving sufficient control of the pest
pest [3] = details: seed treatment; dose giving sufficient control of the pest; dutch registration code no. 8928
pest [4] = details: seed treatment; dose giving sufficient control of the pest; dutch registration code no. 11455
pest [5] = details: seed treatment; dose giving sufficient control of the pest; dutch registration code no. 8672

Compound: CN(C)C(=S)SSC(=S)N(C)C [thiram]
- Effective Dose (pest [1]): 1.6 g per kg radish seeds

Compound: COCC(=O)N(c1c(C)cccc1C)[C@H](C)C(=O)OC [metalaxyl-m]
- Effective Dose (pest [2]; dutch registration code no. 12280): 0.175 g per kg brassica seeds

Compound: CC(C)NC(=O)N1CC(=O)N(c2cc(Cl)cc(Cl)c2)C1=O [iprodione]
- Effective Dose (pest [3]): 5 g per kg carrot seeds

Compound: O=[N+]([O-])NC1=NCCN1Cc1ccc(Cl)nc1 [imidacloprid]
- Effective Dose (pest [4]): 0.8 g per 1000 lettuce seeds

Compound: CCOP(=S)(OCC)Oc1nc(Cl)c(Cl)cc1Cl [chlorpyriphos]
- Effective Dose (pest [2]; dutch registration code no. 10968): 0.096 g per 1000 brassica seeds

Compound: COC(=O)Nc1nc2ccccc2[nH]1 [carbendazim]
- Effective Dose (pest [5]): 1 g per kg onion seeds
